Measurements reported in US9499519B2, “Fused pyrimidine compounds and use thereof” (Medivation Technologies, Inc., priority 2012, dated 2016).

Tested on: Akt phosphorylation induced by IGF-1R
Assay: Western blot analysis of Akt phosphorylation induced by IGF-1 in HT-29 cells
Assay type: cell-based, Human
Details: for Levels of phosphorylated AKT in treated cells (pAKT/actin): HT-29 cells, IGF-1; for p-AKT relative to levels with 0.1 nM compound: Table B2 lower part; for Normalized phosphorylated AKT (relative to actin) levels relative to 0.1 nM compound treatment: Table B2 upper part
Experimental: Inhibition of Akt phosphorylation induced by IGF-1R was studied by western blot analysis. Human colon carcinoma HT-29 cells were seeded at a density of 8×10^4 cells/well in a 24-well plate and grown in DME/F12 media containing 10% FBS for 24 h. The cells were then depleted of serum by incubation in DME/F12 media lacking FBS for 24 h. […] […] Lysed cells were centrifuged at 13,000 rpm for 15 min and the protein concentration soluble fraction (supernatant) of each sample was determined using a BCA protein assay (Pierce).

SMILES	Levels of phosphorylated AKT in treated cells (pAKT/actin) (0.1 nM compound)	p-AKT relative to levels with 0.1 nM compound (0.1 nM)	Normalized phosphorylated AKT (relative to actin) levels relative to 0.1 nM compound treatment (0.1 nM)	Levels of phosphorylated AKT in treated cells (pAKT/actin) (1 nM compound)	p-AKT relative to levels with 0.1 nM compound (1 nM)	Normalized phosphorylated AKT (relative to actin) levels relative to 0.1 nM compound treatment (1 nM)	Levels of phosphorylated AKT in treated cells (pAKT/actin) (10 nM compound)	p-AKT relative to levels with 0.1 nM compound (10 nM)	Normalized phosphorylated AKT (relative to actin) levels relative to 0.1 nM compound treatment (10 nM)	Levels of phosphorylated AKT in treated cells (pAKT/actin) (100 nM compound)	p-AKT relative to levels with 0.1 nM compound (100 nM)	Normalized phosphorylated AKT (relative to actin) levels relative to 0.1 nM compound treatment (100 nM)
O=C(Nc1ccc(F)nc1)C1CCCN1c1nc2c(c(Nc3cc(C4CC4)[nH]n3)n1)CCC2 (racemic) [Compound 2, 1-(4-(5-cyclopropyl-1H-pyrazol-3-ylamino)-6,7-dihydro-5H-cyclopenta[d]pyrimidin-2-yl)-N-(6-fluoropyridin-3-yl)pyrrolidine-2-carboxamide]	1.04	1.0	1.0	0.91	0.9	0.9	0.07	0.1	0.1	0.00	0.0	0.0
O=C(Nc1ccc(F)nc1)C1CCCN1c1nc2c(c(Nc3cc(C4CCCC4)[nH]n3)n1)CCC2 (racemic) [Compound 4, 1-(4-(3-cyclopentyl-1H-pyrazol-5-ylamino)-6,7-dihydro-5H-cyclopenta[d]pyrimidin-2-yl)-N-(6-fluoropyridin-3-yl)pyrrolidine-2-carboxamide]	1.92	1.0	1.0	1.59	0.8	0.8	1.01	0.5	0.5	0.06	0.0	0.0
O=C(Nc1cnccn1)C1CCCN1c1nc2c(c(Nc3cc(C4CC4)[nH]n3)n1)CCC2 (racemic) [Compound 6, 1-(4-(3-cyclopropyl-1H-pyrazol-5-ylamino)-6,7-dihydro-5H-cyclopenta[d]pyrimidin-2-yl)-N-(pyrazin-2-yl)pyrrolidine-2-carboxamide]	1.54	1.0	1.0	0.22	0.1	0.1	0.01	0.0	0.0	0.01	0.0	0.0
O=C(Nc1cncnc1)C1CCCN1c1nc2c(c(Nc3cc(C4CC4)[nH]n3)n1)CCC2 (racemic) [Compound 7, 1-(4-(3-cyclopropyl-1H-pyrazol-5-ylamino)-6,7-dihydro-5H-cyclopenta[d]pyrimidin-2-yl)-N-(pyrimidin-5-yl)pyrrolidine-2-carboxamide]	1.45	1.0	1.0	2.08	1.4	1.4	1.09	0.7	0.7	1.20	0.8	0.8
O=C(Nc1ccc(F)nc1)C1CCCCN1c1nc2c(c(Nc3cc(C4CC4)[nH]n3)n1)CCC2 (racemic) [Compound 9, 1-(4-(3-cyclopropyl-1H-pyrazol-5-ylamino)-6,7-dihydro-5H-cyclopenta[d]pyrimidin-2-yl)-N-(6-fluoropyridin-3-yl)piperidine-2-carboxamide]	0.67	1.0	1.0	0.71	1.1	1.1	0.07	0.1	0.1	0.00	0.0	0.0
O=C(Nc1cccnc1)C1CCCN1c1nc2c(c(Nc3cc(C4CC4)[nH]n3)n1)CCC2 (single isomer, unassigned) [Compound 3a, 1-(4-(5-cyclopropyl-1H-pyrazol-3-ylamino)-6,7-dihydro-5H-cyclopenta[d]pyrimidin-2-yl)-N-(pyridin-3-yl)pyrrolidine-2-carboxamide]	2.64	1.0	1.0	1.68	0.6	0.6	1.86	0.7	0.7	2.19	0.8	0.8
O=C(Nc1cccnc1)C1CCCN1c1nc2c(c(Nc3cc(C4CC4)[nH]n3)n1)CCC2 (single isomer, unassigned) [Compound 3b, 1-(4-(5-cyclopropyl-1H-pyrazol-3-ylamino)-6,7-dihydro-5H-cyclopenta[d]pyrimidin-2-yl)-N-(pyridin-3-yl)pyrrolidine-2-carboxamide]	2.25	1.0	1.0	1.70	0.8	0.8	0.57	0.3	0.3	0.02	0.0	0.0
